Assay in all cases: inhibition of tumour cell growth, NCI panel, 48 h
Test [1] relates to HCC-2998 colon.
The subject of test [2] is HCT-116 colon.
Test [3] has as its system HCT-15 colon.
Test [4] concerns HS 578T breast.
The test system of test [5] is KM12 colon.
In test [6] the test system is MDA-MB-435.
The test system of test [7] is NCI-H226 lung.
For test [8], the system named is PC-3 prostate.
Test [9] has as its system SF-539 CNS.
The subject of test [10] is SK-MEL-28 melanoma.
Test [11] concerns SN12C renal.
Test [12] has as its system U251 CNS.
The test system of test [13] is MALME-3M melanoma.

Molecules are shown by their SMILES.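 A five-concentration, 48-hour dose response in 96-well plates underlies each endpoint, interpolated linearly between surrounding concentrations. Definition used: TGI = concentration required for complete inhibition of growth.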 A value given as a limit tells only on which side of the number the result lay.

In the case of `COc1ccc2c(c1)C1c3ccccc3CCN1CCC2` (stereo unspecified), the TGI in test [1] is 63.5 µM; in test [2] it was over 100 µM; in test [3], over 100 µM; in [4], over 100 µM; in [5], over 100 µM; in test [6] it was 51.1 µM. The TGI in test [7], in test [8], in [9], in test [10], in [11] and in test [12] was over 100 µM each time.
Take `N#CCN1CCN(CC#N)CCN(CC#N)CCN(CC#N)CC1`: the TGI in test [1], in test [2], in [4], in test [5], in test [13] and in [6] was over 100 µM each time. Moreover, the TGI in [7], in test [8], in test [9], in test [10], in [11] and in test [12] was over 100 µM each time.
Consider `C=CC[C@@]12CCC(=O)C=C1CCCC2=O`, for which the TGI in test [1], in test [2], in test [3], in test [4], in test [13] and in test [6] was over 100 µM each time. Moreover, the TGI in [7], in test [8], in test [9], in [10], in test [11] and in [12] was over 100 µM each time.
For `COc1cccc(N2C(=O)C3c4[nH]c5ccc(C)cc5c4C4CCC(C)CC4C3C2=O)c1` (stereo unspecified), the TGI in test [1] is over 100 µM; in test [2], over 100 µM; in [3] it was over 100 µM; in test [4], 64.9 µM; in test [13], over 100 µM; in test [6], over 100 µM. For the same compound, the TGI in [7], in [8], in test [9], in [10], in [11] and in [12] was over 100 µM in each case.
`CC(=O)c1sc2n(C)c(=O)c3ccccc3[n+]2c1C`: the TGI in test [1], in test [2], in [3], in [4], in test [5] and in [6] was over 100 µM throughout. The TGI in [7], in [8], in test [9], in [10], in [11] and in [12] was over 100 µM in each case.
In the case of `O=C(/N=C1/OC(CN2CCOCC2)CN1C(=O)Nc1ccccc1)Nc1ccccc1` (stereo unspecified), the TGI in [1], in test [2], in [3], in test [4], in test [5] and in test [13] was over 100 µM throughout. The TGI in test [6], in [7], in test [8], in [10], in test [11] and in test [12] was over 100 µM each time.
Take `Cc1ccc2nc(-c3ccc(-c4nc5ccc(C)cc5o4)c(O)c3)oc2c1`: the TGI in test [1], in [2], in [3], in test [4], in [6] and in [7] was over 100 µM throughout. The TGI in [8], in test [9], in test [10], in [11] and in test [12] was over 100 µM in each case.
Consider `COc1ccc2cc(/C=N\NC(=O)Nc3ccc([N+](=O)[O-])cc3)ccc2c1`, for which the TGI in [1] was 20.1 µM; in [2], 16.3 µM; in test [3] it was 25 µM; in [4] it was over 31.6 µM; in test [5] it was 24.5 µM; in test [13] it was 22.4 µM. For the same compound, the TGI in test [6] is 25.1 µM; in test [8], 18.8 µM; in [9], 18.3 µM; in test [10], 23.1 µM; in test [11], 18 µM; in [12], 26.6 µM.
For `CC(=O)c1c2c(cc3c1CC1(C3)Cc3cc4c(c(C(C)=O)c3C1)CCCC4)CCCC2`, the TGI in test [1], in test [2], in [3], in [4], in [5] and in test [13] was over 100 µM each time. Further, the TGI in test [6], in test [7], in [8], in [9], in test [11] and in test [12] was over 100 µM in each case.
`O=C1Nc2ccccc2/C1=N/N1C(=O)/C(=C/c2ccccc2S)N=C1c1ccccc1`: the TGI in [1], in test [2], in test [3], in [4], in test [5] and in [13] was over 100 µM in each case. Also, the TGI in test [6], in [8], in [9], in test [10], in test [11] and in [12] was over 100 µM throughout.
For `CCN(CC)c1ccc2cc(-c3csc(C)n3)c(=O)oc2c1`, the TGI in test [1] was over 100 µM; in [2], over 100 µM; in [3] it was over 100 µM; in [4] it was 67.5 µM; in test [5], over 100 µM; in test [6], over 100 µM. The TGI in test [7], in test [8], in [9], in [10], in test [11] and in [12] was over 100 µM throughout.

These data come from PubChem BioAssay (NCI).
